Measured values as given in the NIST ThermoML archive (doi:10.1016/j.tca.2011.08.002).

Experiment: xn = mol fraction of the nth substance listed
Details: 101 kPa, Liquid, Vibrating tube method

C1CCC(NC2CCCCC2)CC1 [N-cyclohexylcyclohexanamine] + CCCO
mass density [kg/m3]
Details | 288.15 K | 293.15 K | 298.15 K | 303.15 K | 308.15 K | 313.15 K | 318.15 K | 323.15 K
x2 = 0 | 915.498 | 911.705 | 907.923 | 904.144 | 900.372 | 896.608 | 892.847 | 889.089
x2 = 0.0527 | 914.71 | 910.893 | 907.079 | 903.271 | 899.466 | 895.664 | 891.862 | 888.061
x2 = 0.1009 | 913.805 | 909.957 | 906.116 | 902.276 | 898.437 | 894.6 | 890.759 | 886.919
x2 = 0.2004 | 911.438 | 907.522 | 903.612 | 899.7 | 895.78 | 891.876 | 887.957 | 884.032
x2 = 0.3002 | 908.197 | 904.203 | 900.208 | 896.218 | 892.225 | 888.227 | 884.225 | 880.209
x2 = 0.4003 | 903.914 | 899.835 | 895.758 | 891.683 | 887.605 | 883.521 | 879.43 | 875.326
x2 = 0.5005 | 898.063 | 893.905 | 889.747 | 885.59 | 881.429 | 877.263 | 873.086 | 868.893
x2 = 0.6 | 889.96 | 885.737 | 881.518 | 877.299 | 873.074 | 868.843 | 864.613 | 860.363
x2 = 0.6998 | 878.617 | 874.377 | 870.137 | 865.887 | 861.626 | 857.35 | 853.054 | 848.736
x2 = 0.8 | 862.501 | 858.315 | 854.115 | 849.899 | 845.662 | 841.4 | 837.107 | 832.782
x2 = 0.8999 | 839.78 | 835.696 | 831.592 | 827.461 | 823.3 | 819.106 | 814.869 | 810.587
x2 = 0.9491 | 825.362 | 821.334 | 817.281 | 813.202 | 809.088 | 804.934 | 800.736 | 796.489
